Assay [1] relates to pathogen of the specimen. Put plainly: Molecular phenotypic antimicrobial susceptibility test with direct PCR at various incubation timepoints (Table 7). The class given is cell-based. How it is done: Detection of Molecular Phenotypic Antimicrobial Susceptibility. Disclosed herein are the methods for the detection of phenotypic antimicrobial susceptibility via molecular methods. The present invention describes how a specimen 100 with a known microbial load is incubated and then exposed to a panel of antimicrobial agents to determine sensitivity (prevention of growth) or resistance (allowance of growth) to the specific antimicrobial agents tested utilizing molecular methods. Sample Collection. Specimens 100 are collected from patients using sterile collection processes that are employed in routine clinical care. Specimens are transported to the testing facility in boric acid preservative. […] The process for pathogen isolation includes steps of harvesting the pathogen (e.g., via centrifugation), isolating pathogen DNA via a DNA isolation and/or purification kit, and performing PCR on the pathogen DNA via PCR components (e.g., primers, enzymes, buffers) as would be known to the skilled artisan. […] This aliquot is used for antimicrobial susceptibility testing if indicated based on the pathogen detection results. […] Specimens 100 with lower pathogen loads could also be utilized in the antibiotic susceptibility phase of testing with or without a longer incubation period. […] Antimicrobial solutions are prepared at known concentrations. The specific antimicrobials and their concentrations are selected based on the pathogen of interest and the described antimicrobial resistance breakpoints for that specimen pathogen and antimicrobial combination. These antimicrobials have been selected based on those commonly utilized by healthcare providers in routine clinical care for the specific type of suspected infection. The number and types of antimicrobials utilized can be customized based on the infection source, pathogen detected, patient-specific factors such as allergies or other health conditions (e.g., chronic kidney disease or concurrent medication use), or healthcare provider preferences such as antimicrobial availability or cost. The antimicrobial solutions are prepared in liquid culture media (such as Muller Hinton Broth) to achieve the desired antimicrobial concentration and are then stored at −80° C. until use. For a given specimen, each antimicrobial is tested at a single or multiple antimicrobial concentration(s) which is its established breakpoints for sensitivity. The antimicrobial solutions are prepared and plated out for each specific pathogen. […] This allows for evaluation of pathogen load when no antimicrobial is present. Specimen Exposure to Antimicrobial Agents. The 1 mL aliquot of the specimen 100 previously mixed with culture media and incubated is obtained. Using optical density measurements as a guide, the specimen 100 is diluted to 0.5 McFarland. […] Antimicrobial exposure plates are typically placed into an incubator for 12-16 hours. […] Nucleic Acid Amplification of Antimicrobial Agent Exposed Pathogens. The antimicrobial exposure plate is removed after the period of incubation. The specimen then undergoes a purification or lysis step. For example, the specimen may undergo a purification step (e.g., magnetic bead-based or other separation protocol to isolate genetic material). In another example, the specimen may undergo a cell lysis step. For example, buffer (e.g., lysis buffer) may be added and incubated in the thermal cycler for preparation for direct PCR. Next, the specimen may undergo a polymerase chain reaction (PCR) testing protocol, whereby a semi-quantitative PCR method is utilized. This may be completed either with or without a specific extraction protocol step. The pathogens can be individually targeted and detected, or a universal genetic sequence can be utilized to detect the antimicrobial susceptibility of the specimen as a whole. The control wells are utilized as a threshold for determining antimicrobial sensitivity or resistance. […] Antimicrobial Susceptibility Result Interpretation.

For assay [2], the system named is pathogen of the specimen. Nature of the assay: Traditional culture-based antimicrobial susceptibility test (comparison of Table 7). The class given is cell-based. Particulars: E. coli isolate 1189. The procedure: Table 7 illustrates the results of an example antimicrobial agent susceptibility test of the current application versus a traditional culture-based antimicrobial agent susceptibility test at multiple incubation timepoints, in accordance with one or more embodiments of the disclosure. These specimens were tested with direct PCR (e.g., no extraction DNA purification step prior to PCR). […] Result Reporting to Healthcare Providers. The results from the antimicrobial exposure are reported to the ordering healthcare provider. This information can be utilized by the healthcare provider when selecting an antimicrobial regimen for their individual patient based on these individual specimen results and patient specific factors. […] The current standard of care for antimicrobial susceptibility testing involves the growth, isolation, and exposure of pathogens to antimicrobials. This traditional culture and sensitivity process can take multiple days to obtain results, limiting the ability of healthcare providers to receive timely results to make actionable changes in patient care or management. Healthcare providers desire a method to obtain antimicrobial susceptibility results with quicker turn-around-time. This application discloses a molecular-based phenotypic antimicrobial susceptibility method which involves pathogen exposure to a panel of antimicrobial agents at their specified minimum inhibitory concentration breakpoints for sensitivity. This method allows for more timely antimicrobial susceptibility results.

In the case of Amoxicillin/Clavulanate, the “Molecular Antimicrobial Susceptibility Result” value in assay [1] (E. coli isolate 1189, antibiotic incubation time 4 hours) is “Resistant”; in assay [1] (E. coli isolate 1189, antibiotic incubation time 6 hours), “Resistant”; in assay [1] (E. coli isolate 1189, antibiotic incubation time 8 hours), “Resistant”; in assay [1] (E. coli isolate 1189, antibiotic incubation time 10 hours) it was “Resistant”; in assay [1] (E. coli isolate 1189, antibiotic incubation time 14 hours) it was “Resistant”; in assay [1] (E. coli isolate 1189, antibiotic incubation time 16 hours), “Resistant”. The “Ct at Sensitive Breakpoint” value in assay [1] (E. coli isolate 1189, antibiotic incubation time 4 hours, control average Ct […]) was 16.799; in assay [1] (E. coli isolate 1189, antibiotic incubation time 6 hours, control average Ct 16.992) it was 17.105; in assay [1] (E. coli isolate 1189, antibiotic incubation time 8 hours, control average Ct […]) it was 17.430; in assay [1] (E. coli isolate 1189, antibiotic incubation time 10 hours, control average Ct 15.995), 15.606; in assay [1] (E. coli isolate 1189, antibiotic incubation time 14 hours, control average Ct 15.826), 14.226; in assay [1] (E. coli isolate 1189, antibiotic incubation time 16 hours, control average Ct 14.880) it was 14.825. The “Traditional Culture Result” value in assay [2] is “Resistant”.

The values above are taken from patent publication US20250290117A1, “MOLECULAR PHENOTYPIC ANTIMICROBIAL SUSCEPTIBILITY TESTING” (priority 2024, published 2025).
